The subject of assay [1] is rat B cells derived from whole blood. The experiment in a line: Determination of rat B cell activation in whole blood (CD86 upregulation after anti-IgM and rIL-4). The class given is cell-based. The following applies: anti-IgM + rIL-4 stimulation, CD86 on CD45RA+ B cells, read-out: RWB/IC50 CD86. The protocol: 2.3 Determination of Rat B Cell Activation
PI3Kδ has been recognized to modulate B cell function when cells are stimulated through the B cell receptor (BCR) (Okkenhaug et al. Science 297:1031 (2002). For assessing the inhibitory property of compounds on B cell activation, the upregulation of activation markers CD86 on rat B cells derived from whole blood is measured after stimulation with anti-IgM and recombinant IL-4. The CD86 molecule (also known as B7-2) is primarily expressed on antigen-presenting cells, including B cells. Resting B cells express CD86 at low levels, but upregulate it following stimulation of e.g. the BCR or IL-4 receptor. CD86 on a B cell interacts with CD28 on T cells. This interaction is required for optimal T cell activation and for the generation of an optimal IgG1 response (Carreno et al. Annu Rev Immunol. 20:29 (2002)).
Whole blood was collected from the abdominal aorta adult male Lewis rats (LEW/HanHsd) oby using a 10 ml syringe with hypodermic needle pre-coated with sodium heparin. Blood was transferred into 50 ml Falcon tubes and the anticoagulant concentration was adjusted to 100 U/ml.
For assessment of the in vitro effects of immunosuppressive drugs, heparinized blood was prediluted to 50% with medium. As medium served DMEM high glucose (Animed cat#1-26F01-I) supplemented with 100 U/ml penicillin, […], 2 mM L-glutamin, 50 mg/ml dextran 40 and 5% fetal calf serum (FCS, Fetaclone I, Gibco #10270-106). Then, 190 μl prediluted blood was spiked with 10 μl of pre-diluted test compound in 96 well U-bottomed microtiter plates (Nunc) resulting in a 3-fold serial dilution with a concentration range from 20 to 0.0003 μM. Control wells were pretreated with DMSO to obtain a final concentration of 0.5% DMSO. Cultures were set up in duplicates, mixed well by agitation on a plate shaker (Heidolph Titramax 101; 30 sec, speed 900), pipetting up and down and agitated on the plate shaker again. Cultures were incubated at 37° C., 5% CO2 for 1 hr. Then, 20 μl of polyclonal goat anti-rat IgM Ab (Serotec, cat#302001) and 10 μl of diluted recombinant rIL-4 (Immunotools #340085) were added to obtain final concentrations of 30 μg/ml and 5 ng/ml, respectively. Plates were mixed by agitation on a plate shaker as above and incubated for 24 hrs at 37° C., 5% CO2.
After incubation, 15 μl of a 25 mM EDTA solution was added per well and shaken for 15 min to detach adherent cells. For analysis of surface activation markers, samples were then stained with PE-Cy5-labeled anti-ratCD45RA (BD cat#557015) to allow gating on B cells in FACS analysis. In addition, samples were stained with PE-labeled anti-rat CD86 (BD cat#551396). All staining procedures were performed at rt for 30 min in the dark. After incubation, samples were transferred to 96-deep well V-bottomed microtiter plates (Corning #396096) containing 2 ml/well of BD Lysing Solution (BD #349202). After lysis of erythrocytes samples were washed with 2 ml of CellWASH (BD #349524). Data was acquired on an LSRII or FACScalibur flow cytometer (BD Biosciences) using Cellquest Plus or DIVA (version 6.1.1) software, respectively. Lymphocytes were gated in the FSC/SSC dot blot according to size and granularity and further analyzed for expression of CD45RA and activation markers. Data were calculated from dot blots or histograms as percentage of cells positively stained for activation markers within the CD45RA+ population.
The percentage inhibition of B cell activation after exposure to drug was calculated by the following formula: […]
ORIGIN 7 software (OriginLab Corporation, Northampton, Mass.) was used for non-linear regression curve fitting.

The target of assay [2] is myristoylated catalytic subunit of human PI3K delta in Rat-1 cells (Homo sapiens (Human), UniProt O00329). Kind of assay: PI3K-mediated Akt 1/2 (S473) phosphorylation in Rat-1 cells, PI3K delta. In kind it is cell-based. The conditions noted are these: Rat-1 cells overexpressing myristoylated human PI3K delta; p-Akt (S473) AlphaScreen SureFire; read-out: Cell PI3Kδ/ IC50. The protocol: 2.1 Phosphoinositide-3 Kinase (PI3K)-Mediated Akt 1/2 (S473) Phosphorylation in Rat-1 Cells
myristoylated catalytic subunit of human PI3K delta in Rat-1 cells, sequence (O00329 whole entry): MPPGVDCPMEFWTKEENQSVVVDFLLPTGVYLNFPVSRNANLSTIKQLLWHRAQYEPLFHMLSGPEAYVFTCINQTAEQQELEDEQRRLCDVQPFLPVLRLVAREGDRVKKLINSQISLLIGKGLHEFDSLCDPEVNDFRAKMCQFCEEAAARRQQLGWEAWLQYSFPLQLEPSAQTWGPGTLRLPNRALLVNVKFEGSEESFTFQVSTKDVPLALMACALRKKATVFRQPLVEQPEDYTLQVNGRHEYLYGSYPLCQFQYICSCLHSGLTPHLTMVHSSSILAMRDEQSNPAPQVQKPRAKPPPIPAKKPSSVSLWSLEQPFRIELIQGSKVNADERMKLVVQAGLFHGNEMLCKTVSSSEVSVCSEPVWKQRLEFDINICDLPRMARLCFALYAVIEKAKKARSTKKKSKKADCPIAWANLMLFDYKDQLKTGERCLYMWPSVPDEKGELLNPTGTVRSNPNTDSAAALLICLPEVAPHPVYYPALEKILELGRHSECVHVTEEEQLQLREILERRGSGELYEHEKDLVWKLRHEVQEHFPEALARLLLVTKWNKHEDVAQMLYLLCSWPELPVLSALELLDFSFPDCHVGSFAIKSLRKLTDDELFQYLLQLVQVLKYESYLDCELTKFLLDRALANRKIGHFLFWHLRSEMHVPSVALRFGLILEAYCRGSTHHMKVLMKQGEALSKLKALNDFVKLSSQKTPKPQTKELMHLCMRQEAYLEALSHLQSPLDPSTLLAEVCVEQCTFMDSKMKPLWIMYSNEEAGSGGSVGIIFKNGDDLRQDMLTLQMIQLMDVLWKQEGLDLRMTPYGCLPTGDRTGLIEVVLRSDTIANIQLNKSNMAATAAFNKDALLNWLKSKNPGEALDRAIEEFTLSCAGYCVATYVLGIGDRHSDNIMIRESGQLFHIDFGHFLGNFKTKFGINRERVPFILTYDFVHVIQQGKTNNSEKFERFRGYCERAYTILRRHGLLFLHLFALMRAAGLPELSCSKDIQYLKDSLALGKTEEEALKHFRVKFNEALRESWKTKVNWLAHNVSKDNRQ
Rat-1 cells stably overexpressing a myristoylated form of the catalytic subunit of human phosphoinositide-3 kinase (PI3K) alpha, beta or delta were plated in 384-well plates at a density of 7500 (PI3K alpha), 6200 (PI3K beta), or 4000 (PI3K delta) cells in 30 ul complete growth medium (Dulbecco's modified Eagle's medium (DMEM high glucose) supplemented with 10% (v/v) fetal bovine serum, 1% (v/v) MEM non essential amino acids, 10 mM HEPES, 2 mM L-glutamine, 10 μg/mL puromycin and 1% (v/v) Penicillin/Streptomycin) and were incubated at […]/5% CO2/95% humidity for 24 h. Compounds were diluted in 384-well compound plates to obtain 8-point serial dilutions for 40 test compounds in 90% DMSO, as well as 4 reference compounds plus 16 high controls and 16 low (inhibited) controls. Predilution plates were prepared by dispensing pipetting 250 nl of compound solutions into 384-well polypropylen plates using a Hummingwell nanoliter dispensor. Compounds were prediluted by the addition of 49.75 ul complete growth medium. 10 ul of prediluted compound solution were transferred to the cell plate using a 384-well pipettor, resulting in a final DMSO concentration of 0.11%.
Cells were incubated for 1 h at […]/5% CO2/95% humidity. The supernatant was removed, the cells were lysed in 20 ul of lysis buffer for AlphaScreen® SureFire® detection.
For detection of p-AKT(Ser473), the SureFire® p-Akt 1/2 (Ser473) Assay Kit (PerkinElmer, U.S.A) was used. 5 ul of cell lysate was transferred to 384-well low volume Proxiplates for detection using a 384-well pipettor. Addition of AlphaScreen® SureFire® reagents was done according to the manufacturer's protocol. First, 5 ul of reaction buffer plus activation buffer mix containing AlphaScreen® acceptor beads was added, the plate was sealed, and incubated on a plate shaker for 2 hours at room temperature. Second, 2 ul of dilution buffer containing AlphaScreen® donor beads was added, and the plate was incubated on plate shaker as above for a further 2 hours. The plate was read on an AlphaScreen® compatible plate reader, using standard AlphaScreen® settings.

For a further assay, the target named is PI3K delta (Homo sapiens (Human), UniProt O00329). The experiment in a line: Enzymatic PI3K delta isoform inhibition (lipid kinase activity, Kinase-Glo luminescence). In kind it is biochemical. The conditions noted are these: Enzymatic assay. Summed up: (§1)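 ATP-depletion format: 10 nM PI3K with 5 μg/mL phosphatidylinositol and 2 μM ATP, run to ~50% ATP consumption, then Kinase-Glo added and remaining ATP read by luminescence after 5 min. IC50 from 4-parameter logistic fit, typically over 8 concentrations 10–0.003 μM.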
PI3K delta, sequence (O00329 other isoform, or with tags, fused parts or gaps linker GGGGGG): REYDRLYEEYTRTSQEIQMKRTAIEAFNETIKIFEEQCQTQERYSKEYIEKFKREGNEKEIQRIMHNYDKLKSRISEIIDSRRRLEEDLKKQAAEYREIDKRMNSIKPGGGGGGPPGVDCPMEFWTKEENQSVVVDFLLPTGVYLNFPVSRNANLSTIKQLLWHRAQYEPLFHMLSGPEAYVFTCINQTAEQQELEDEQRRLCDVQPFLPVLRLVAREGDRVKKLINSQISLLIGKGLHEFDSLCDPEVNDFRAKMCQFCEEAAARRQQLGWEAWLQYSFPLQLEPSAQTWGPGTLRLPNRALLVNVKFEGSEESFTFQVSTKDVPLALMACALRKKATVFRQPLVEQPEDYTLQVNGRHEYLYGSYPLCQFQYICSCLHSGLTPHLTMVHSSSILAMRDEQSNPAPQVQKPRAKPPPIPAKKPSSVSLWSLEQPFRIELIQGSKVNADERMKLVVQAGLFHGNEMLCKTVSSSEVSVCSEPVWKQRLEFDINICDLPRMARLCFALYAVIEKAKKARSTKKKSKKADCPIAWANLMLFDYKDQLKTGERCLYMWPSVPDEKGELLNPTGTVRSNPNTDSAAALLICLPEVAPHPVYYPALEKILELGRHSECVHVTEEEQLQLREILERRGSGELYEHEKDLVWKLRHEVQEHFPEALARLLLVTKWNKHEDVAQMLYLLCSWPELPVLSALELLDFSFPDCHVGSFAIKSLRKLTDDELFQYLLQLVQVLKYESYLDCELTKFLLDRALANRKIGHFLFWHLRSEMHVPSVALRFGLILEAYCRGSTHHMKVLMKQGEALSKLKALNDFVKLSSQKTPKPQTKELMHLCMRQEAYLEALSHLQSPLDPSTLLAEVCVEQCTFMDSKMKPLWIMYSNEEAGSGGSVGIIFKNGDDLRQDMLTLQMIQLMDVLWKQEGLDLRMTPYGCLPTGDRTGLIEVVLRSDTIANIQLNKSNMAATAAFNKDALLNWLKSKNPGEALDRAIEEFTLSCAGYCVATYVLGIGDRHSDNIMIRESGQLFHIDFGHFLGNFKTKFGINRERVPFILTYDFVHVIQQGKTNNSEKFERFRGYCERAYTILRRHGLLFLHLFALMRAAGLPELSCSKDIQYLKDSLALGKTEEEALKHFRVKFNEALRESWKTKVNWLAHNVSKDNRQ

A further assay has as its target PI3K alpha (Homo sapiens (Human), UniProt P42336). Kind of assay: Enzymatic PI3K alpha isoform inhibition (lipid kinase activity, Kinase-Glo luminescence). The conditions noted are these: Enzymatic assay. In kind it is biochemical. Summed up: as §1

Where only a bound is given, the exact number is not on record here.

PI3K alpha, sequence (P42336 other isoform, or with tags, fused parts or gaps): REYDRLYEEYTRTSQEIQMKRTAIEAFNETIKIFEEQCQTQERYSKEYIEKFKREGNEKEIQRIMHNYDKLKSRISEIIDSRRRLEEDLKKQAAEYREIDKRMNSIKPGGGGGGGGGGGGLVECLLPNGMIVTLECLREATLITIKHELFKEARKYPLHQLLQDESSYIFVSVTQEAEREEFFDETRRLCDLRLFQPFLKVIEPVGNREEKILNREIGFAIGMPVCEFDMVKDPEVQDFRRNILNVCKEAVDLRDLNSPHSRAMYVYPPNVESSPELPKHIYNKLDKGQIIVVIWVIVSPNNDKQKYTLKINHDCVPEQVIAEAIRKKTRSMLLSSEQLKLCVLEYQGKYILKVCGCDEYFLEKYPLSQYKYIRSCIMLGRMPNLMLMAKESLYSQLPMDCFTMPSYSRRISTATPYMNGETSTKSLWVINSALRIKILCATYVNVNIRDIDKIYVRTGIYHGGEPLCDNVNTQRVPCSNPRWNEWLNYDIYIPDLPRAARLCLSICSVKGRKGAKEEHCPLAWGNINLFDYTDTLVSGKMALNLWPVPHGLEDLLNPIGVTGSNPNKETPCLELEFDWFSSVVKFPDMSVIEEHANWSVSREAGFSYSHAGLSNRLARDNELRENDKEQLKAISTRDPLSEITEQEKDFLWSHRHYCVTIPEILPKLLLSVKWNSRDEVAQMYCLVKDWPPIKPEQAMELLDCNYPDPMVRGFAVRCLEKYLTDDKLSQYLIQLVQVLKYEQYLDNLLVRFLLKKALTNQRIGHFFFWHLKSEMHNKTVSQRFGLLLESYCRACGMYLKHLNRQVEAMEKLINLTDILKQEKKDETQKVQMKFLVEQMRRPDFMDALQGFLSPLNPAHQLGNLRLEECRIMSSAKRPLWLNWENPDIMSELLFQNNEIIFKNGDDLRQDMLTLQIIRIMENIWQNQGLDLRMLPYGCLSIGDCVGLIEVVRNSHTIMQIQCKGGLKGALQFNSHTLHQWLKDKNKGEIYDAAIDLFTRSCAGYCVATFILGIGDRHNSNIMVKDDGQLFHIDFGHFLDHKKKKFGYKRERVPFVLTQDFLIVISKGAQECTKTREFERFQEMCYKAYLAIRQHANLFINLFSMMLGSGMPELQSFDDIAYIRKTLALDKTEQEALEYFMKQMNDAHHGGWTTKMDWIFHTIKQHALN

Take `[2H]C1([2H])COc2ccc(O[C@H]3CCN(C(=O)C4CCOCC4)C3)cc2N1c1cnc(OC)c(C)c1` (single isomer, unassigned) [Q]: the IC50 was found to be 37 nM in assay [1], 145 nM in assay [2], 14 nM against PI3K delta and 1140 nM against PI3K alpha.
For the molecule `COc1ncc(N2CCOc3ccc(O[C@H]4CCN(C(=O)C5CCOCC5)C4)cc32)cc1C` [Example A1, (S)-(3-((4-(6-methoxy-5-methylpyridin-3-yl)-3,4-dihydro-2H-benzo[b][1,4]oxazin-6-yl)oxy)pyrrolidin-1-yl)(tetrahydro-2H-pyran-4-yl)methanone], the IC50 in assay [1] was found to be 37 nM; in assay [2] it was 43 nM; against PI3K delta, 6 nM; on PI3K alpha, 322 nM.
In the same order, the values of `Cc1cc(N2CCOc3ccc(O[C@H]4CCN(C(=O)C5CCOCC5)C4)cc32)cnc1S(C)(=O)=O` [Example B1, {(S)-3-[4-(6-Methanesulfonyl-5-methyl-pyridin-3-yl)-3,4-dihydro-2H-benzo[1,4]oxazin-6-yloxy]-pyrrolidin-1-yl}-(tetrahydro-pyran-4-yl)-methanone] are 29 nM, 154 nM, 14 nM and 390 nM.
The corresponding values for `COc1ncc(N2CCOc3ccc(O[C@H]4CCN(C(=O)C5CCOCC5)C4)cc32)cc1C#N` [Example C1, 2-Methoxy-5-{6-[(S)-1-(tetrahydro-pyran-4-carbonyl)-pyrrolidin-3-yloxy]-2,3-dihydro-benzo[1,4]oxazin-4-yl}-nicotinonitrile] are 68 nM, 81 nM, 19 nM and 300 nM.
Take `COc1ncc(N2CCOc3ccc(O[C@H]4CCN(C(=O)c5cn(C)cn5)C4)cc32)cc1C#N` [Example D1, (S)-2-methoxy-5-(6-((1-(1-methyl-1H-imidazole-4-carbonyl)pyrrolidin-3-yl)oxy)-2H-benzo[b][1,4]oxazin-4(3H)-yl)nicotinonitrile]: the IC50 in assay [1] was 84 nM; in assay [2] it was 147 nM; at PI3K delta, 5 nM.
Take `COc1ncc(N2CCOc3cnc(O[C@H]4CCN(C(=O)c5cn(C)cn5)C4)cc32)cc1C` [Example E1, {(S)-3-[1-(6-Methoxy-5-methyl-pyridin-3-yl)-2,3-dihydro-1H-pyrido[3,4-b][1,4]oxazin-7-yloxy]-pyrrolidin-1-yl}-(1-methyl-1H-imidazol-4-yl)-methanone]: the IC50 in assay [1] stood at 78 nM; in assay [2], 7 nM; against PI3K delta it was 4 nM; against PI3K alpha it was 98 nM.
`COc1ncc(N2CCOc3cnc(O[C@H]4CCN(C(=O)C5CCOCC5)C4)cc32)cc1C` [Example E3, {(S)-3-[1-(6-Methoxy-5-methyl-pyridin-3-yl]-2,3-dihydro-1H-pyrido[3,4-b][1,4]oxazin-7-yloxy]-pyrrolidin-1-yl}-(tetrahydro-pyran-4-yl)-methanone]: the IC50 was 14 nM in assay [1], 18 nM in assay [2], under 3 nM against PI3K delta and 494 nM at PI3K alpha.
Take `COc1ncc(N2CCOc3cnc(O[C@H]4CCN(C(=O)C5CCS(=O)(=O)CC5)C4)cc32)cc1C` [Example F1, (1,1-Dioxo-hexahydro-1lambda*6*-thiopyran-4-yl)-{(S)-3-[1-(6-methoxy-5-methyl-pyridin-3-yl)-2,3-dihydro-1H-pyrido[3,4-b][1,4]oxazin-7-yloxy]-pyrrolidin-1-yl}-methanone]: the IC50 in assay [1] turned out to be 7 nM.
As to `COc1ncc(N2CCOc3cnc(O[C@H]4CCN(C(=O)C5CCS(=O)(=O)CC5)C4)cc32)cc1C(F)F` [Example F7, {(S)-3-[1-(5-Difluoromethyl-6-methoxy-pyridin-3-yl)-2,3-dihydro-1H-pyrido[3,4-b][1,4]oxazin-7-yloxy]-pyrrolidin-1-yl}-(1,1-dioxo-hexahydro-1lambda*6*-thiopyran-4-yl)-methanone], the IC50 is 40 nM in assay [1], 18 nM in assay [2], under 3 nM on PI3K delta and 71 nM against PI3K alpha.

The values are drawn from patent publication US9539260B2, “Dihydro-benzo-oxazine and dihydro-pyrido-oxazine derivatives” (Novartis AG, priority 2012, dated 2017).
